In the NIST ThermoML archive (doi:10.1021/acs.jced.5b00447):

Assay: xn = mol fraction of the nth substance listed
Conditions: for surface tension liquid-gas: wilhelmi plate; for viscosity / speed of sound / mass density: 100 kPa, Liquid; for viscosity: Capillary tube (Ostwald / Ubbelohde) method; for speed of sound: Frequency=3 MHz, Sing-around technique in a fixed-path interferometer; for mass density: Vibrating tube method

CN(C)CCN [2-dimethylamino-1-ethylamine] + O
Conditions	mass density [kg/m3]	speed of sound [m/s]	surface tension liquid-gas [mN/m]	viscosity [mPa·s]
293.15 K, x1 = 0.1002	975	1773.4	42.6	6.83
293.15 K, x1 = 0.2	952	1708.6	37.1	12.66
293.15 K, x1 = 0.3002	920	1605.4	32.9	10.5
293.15 K, x1 = 0.3996	895	1517.2	30.6	6.463
293.15 K, x1 = 0.5035	874	1456.6	29.4	3.875
293.15 K, x1 = 0.5995	858	1419.2	28.6	2.743
293.15 K, x1 = 0.7007	844	1387.2	27.9	1.965
293.15 K, x1 = 0.8002	833	1349.8	27.4	1.464
293.15 K, x1 = 0.8999	825	1328	26.9	1.162
293.15 K, x1 = 1	819	1319.6	26.4	0.988
303.15 K, x1 = 0.1002	970	1743.6	41.9	4.28
303.15 K, x1 = 0.2	943	1672.8	36.3	7.355
303.15 K, x1 = 0.3002	912	1568.6	32.2	6.268
303.15 K, x1 = 0.3996	886	1480.2	29.8	4.148
303.15 K, x1 = 0.5035	865	1419.2	28.6	2.709
303.15 K, x1 = 0.5995	849	1381.6	27.8	2.013
303.15 K, x1 = 0.7007	835	1349	27.1	1.51
303.15 K, x1 = 0.8002	824	1305.2	26.6	1.161
303.15 K, x1 = 0.8999	816	1288.7	26.1	0.94
303.15 K, x1 = 1	810	1279.3	25.8	0.819
313.15 K, x1 = 0.1002	963	1712.8	41.3	2.891
313.15 K, x1 = 0.2	935	1636.1	35.2	4.689
313.15 K, x1 = 0.3002	901	1531.3	31.2	4.105
313.15 K, x1 = 0.3996	877	1443.1	28.9	2.884
313.15 K, x1 = 0.5035	856	1381.8	27.8	2.019
313.15 K, x1 = 0.5995	840	1343.3	27	1.552
313.15 K, x1 = 0.7007	826	1310.3	26.3	1.192
313.15 K, x1 = 0.8002	814	1266.2	25.8	0.937
313.15 K, x1 = 0.8999	806	1249.2	25.3	0.773
313.15 K, x1 = 1	801	1239	25.2	0.693
323.15 K, x1 = 0.1002	955	1682	40.4	2.069
323.15 K, x1 = 0.2	926	1598.4	34.3	3.179
323.15 K, x1 = 0.3002	893	1493.1	30.6	2.853
323.15 K, x1 = 0.3996	868	1411.3	27.9	2.105
323.15 K, x1 = 0.5035	847	1343.5	27.1	1.519
323.15 K, x1 = 0.5995	831	1305.1	26.4	1.201
323.15 K, x1 = 0.7007	817	1271.7	25.7	0.967
323.15 K, x1 = 0.8002	806	1227	25.2	0.804
323.15 K, x1 = 0.8999	797	1209.1	24.7	0.686
323.15 K, x1 = 1	791	1199.3	24.5	0.596
